# Laboratory results as given in patent US12655116B2, “Substituted isophthalic acid diamides” (Bayer Aktiengesellschaft, priority 2020, dated 2026).
# What was measured:
# MATIN [1] = assay: Pre-emergence herbicidal action against MATIN; format: in vivo, Matricaria inodora
# Method in brief: (§1)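 Sandy loam pots, seeds covered with soil, then surface-treated with WP or EC formulations at 600–800 l/ha water plus 0.2% wetting agent. Greenhouse, 3 weeks. Percent damage vs untreated controls.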
# ALOMY [2] = assay: Pre-emergence herbicidal action against ALOMY; format: in vivo, Alopecurus myosuroides; conditions: 80 g/ha, pre-emergence, scored visually after 3 weeks vs untreated controls (100% = plants have died, 0% = like control plants)
# Method in brief: as §1
# ECHCG [3] = assay: Pre-emergence herbicidal action against ECHCG; format: in vivo, Echinochloa crus-galli; conditions: 80 g/ha
# Method in brief: as §1
# DIGSA [4] = assay: Pre-emergence herbicidal action against DIGSA; format: in vivo, Digitaria sanguinalis
# Method in brief: as §1
# PHBPU [5] = assay: Pre-emergence herbicidal action against PHBPU; format: in vivo, Pharbitis purpurea
# Text: Seeds of monocotyledonous and dicotyledonous weed plants and crop plants are laid out in sandy loam soil in wood-fiber pots and covered with soil. The compounds of the invention, formulated in the form of wettable powders (WP) or as emulsion concentrates (EC), are then applied to the surface of the covering soil in the form of an aqueous suspension or emulsion at a water application rate equivalent to 600 to 800 l/ha, with addition of 0.2% wetting agent. After the treatment, the pots are placed in a greenhouse and kept under good growth conditions for the trial plants. The damage to the test plants is scored visually after a test period of 3 weeks by comparison with untreated controls (herbicidal activity in percent (%): 100% activity=the plants have died, 0% activity=like control plants). […] The tables below illustrate, in an illustrative manner, the post-emergence herbicidal action of the compounds of the invention, the herbicidal activity being stated in percent.
# AMARE [6] = assay: Pre-emergence herbicidal action against AMARE; format: in vivo, Amaranthus retroflexus
# Method in brief: as §1
# AMARE [7] = assay: Post-emergence herbicidal action against AMARE; format: in vivo, Amaranthus retroflexus; conditions: 20 g/ha, visual assessment about 3 weeks after treatment, 100% = plants have died, 0% = like control plants
# Method in brief: (§2)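 Herbicidal action is a visual percentage rating (0% = as untreated control, 100% = plants dead) made roughly 3 weeks after treatment. Plants were grown in sandy loam in the greenhouse and treated at the one-leaf stage, 2 to 3 weeks post-sowing. Treatment was a foliar spray of wettable-powder or emulsion-concentrate formulations at 600 to 800 l/ha water plus 0.2% wetting agent.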
# VIOTR [8] = assay: Pre-emergence herbicidal action against VIOTR; format: in vivo, Viola tricolor
# Method in brief: as §1
# SETVI [9] = assay: Pre-emergence herbicidal action against SETVI; format: in vivo, Setaria viridis
# Method in brief: as §1
# VERPE [10] = assay: Pre-emergence herbicidal action against VERPE; format: in vivo, Veronica persica
# Method in brief: as §1
# ABUTH [11] = assay: Pre-emergence herbicidal action against ABUTH; format: in vivo, Abutilon theophrasti; conditions: for Pre-emergence action against ABUTH (herbicidal activity): 80 g/ha, scored visually after 3 weeks vs untreated controls (100% = plants have died, 0% = like control plants); for Pre-emergence action against ABUTH (herbicidal activity in percent): dosage 20 g/ha, scored visually after 3 weeks vs untreated controls, 100% = plants have died, 0% = like control plants
# Method in brief: as §1
# PHBPU [12] = assay: Post-emergence herbicidal action against PHBPU; format: in vivo, Pharbitis purpurea
# Method in brief: as §2
# ABUTH [13] = assay: Post-emergence herbicidal action against ABUTH; format: in vivo, Abutilon theophrasti; conditions: visual assessment about 3 weeks after treatment vs untreated controls
# Method in brief: as §2
# VIOTR [14] = assay: Post-emergence herbicidal action against VIOTR; format: in vivo, Viola tricolor
# Method in brief: as §2
# VERPE [15] = assay: Post-emergence herbicidal action against VERPE; format: in vivo, Veronica persica; conditions: 20 g/ha
# Protocol: Seeds of monocotyledonous and dicotyledonous weed and crop plants are laid out in sandy loam soil in wood-fiber pots, covered with soil and cultivated in a greenhouse under good growth conditions. 2 to 3 weeks after sowing, the test plants are treated at the one-leaf stage. The compounds of the invention, formulated in the form of wettable powders (WP) or as emulsion concentrates (EC), are then sprayed onto the green parts of the plants in the form of an aqueous suspension or emulsion at a water application rate equivalent to 600 to 800 l/ha, with addition of 0.2% wetting agent. After the test plants have been left to stand in the greenhouse under optimal growth conditions for about 3 weeks, the action of the preparations is assessed visually in comparison to untreated controls (herbicidal action in percent (%): 100% activity=the plants have died, 0% activity=like control plants). […] The tables below illustrate, in an illustrative manner, the post-emergence herbicidal action of the compounds of the invention, the herbicidal activity being stated in percent.
# ALOMY [16] = assay: Post-emergence herbicidal action against ALOMY; format: in vivo, Alopecurus myosuroides; conditions: dosage 20 g/ha, visual assessment about 3 weeks after treatment vs untreated controls
# Method in brief: as §2
# AVEFA = assay: Pre-emergence herbicidal action against AVEFA; format: in vivo, Avena fatua; conditions: 80 g/ha, pre-emergence
# Method in brief: as §1
# MATIN [17] = assay: Post-emergence herbicidal action against MATIN; format: in vivo, Matricaria inodora
# Method in brief: as §2
# DIGSA [18] = assay: Post-emergence herbicidal action against DIGSA; format: in vivo, Digitaria sanguinalis; conditions: 20 g/ha
# Method in brief: as §2
# ECHCG [19] = assay: Post-emergence herbicidal action against ECHCG; format: in vivo, Echinochloa crus-galli
# Method in brief: as §2
# SETVI [20] = assay: Post-emergence herbicidal action against SETVI; format: in vivo, Setaria viridis; conditions: dosage 20 g/ha
# Method in brief: as §2
# [21] = 20 g/ha, scored visually after 3 weeks vs untreated controls, 100% = plants have died, 0% = like control plants
# [22] = 80 g/ha, scored visually after 3 weeks vs untreated controls (100% = plants have died, 0% = like control plants)
SMILES,Pre-emergence action against MATIN in % (MATIN [1]; dosage 80 g/ha) [%],Pre-emergence action against ALOMY (herbicidal activity) (ALOMY [2]) [%],Pre-emergence action against ECHCG in % (ECHCG [3]) [%],Pre-emergence action against DIGSA in % (DIGSA [4]; dosage 20 g/ha) [%],Pre-emergence action against DIGSA in % (DIGSA [4]; dosage 80 g/ha) [%],Pre-emergence action against PHBPU in % (PHBPU [5]; dosage 80 g/ha) [%],Pre-emergence action against AMARE in % (AMARE [6]; [21]) [%],Pre-emergence action against AMARE in % (AMARE [6]; [22]) [%],Post-emergence action at 20 g/ha against AMARE in % (AMARE [7]) [%],Pre-emergence action against VIOTR in % (VIOTR [8]; dosage 20 g/ha) [%],Pre-emergence action against VIOTR in % (VIOTR [8]; dosage 80 g/ha) [%],Pre-emergence action against SETVI in % (SETVI [9]; dosage 80 g/ha) [%],Pre-emergence action against VERPE in % (VERPE [10]; dosage 80 g/ha) [%],Pre-emergence action against ABUTH (herbicidal activity) (ABUTH [11]) [%],Post-emergence action against PHBPU in % (PHBPU [12]; dosage 20 g/ha) [%],Post-emergence action against ABUTH in % (ABUTH [13]; dosage 5 g/ha) [%],Post-emergence action against ABUTH in % (ABUTH [13]; dosage 20 g/ha) [%],Pre-emergence action against MATIN in % (MATIN [1]; dosage 20 g/ha) [%],Post-emergence action against VIOTR in % (VIOTR [14]; 20 g/ha) [%],Pre-emergence action against ABUTH (herbicidal activity in percent) (ABUTH [11]) [%],also measured
Cn1nnnc1NC(=O)c1ccc(C(F)(F)F)c(C(=O)NCC2CCCO2)c1Cl (centres unmarked) [Example 1-141],100,90,90,90,100,80,100,100,100,80,100,100,–,–,–,–,–,–,–,–,Pre-emergence action against SETVI in % (SETVI [9]; dosage 20 g/ha): 90%
CCn1nnnc1NC(=O)c1ccc(C(F)F)c(C(=O)NCC2CCCO2)c1Cl (centres unmarked) [Example 2-159],90,80,90,–,–,90,100,100,100,–,80,–,80,100,90,–,–,–,–,–,Post-emergence action against PHBPU in % (PHBPU [12]; dosage 5 g/ha): 80%
CCn1nnnc1NC(=O)c1ccc(Br)c(C(=O)NCCOC)c1Cl [Example 2-186],100,100,100,–,–,–,100,100,100,–,90,–,90,100,–,80,90,80,80,100,Post-emergence action against VERPE in % (VERPE [15]): 80%; Post-emergence action against ALOMY in % (ALOMY [16]): 80%; Pre-emergence action against AVEFA in % (AVEFA): 80%
CCn1nnnc1NC(=O)c1ccc(C(F)(F)F)c(C(=O)NC(C)C2CC2)c1Br (centres unmarked) [Example 2-213],100,–,90,80,100,90,100,100,–,100,100,100,90,100,80,–,80,100,90,100,Post-emergence action against MATIN in % (MATIN [17]; dosage 5 g/ha): 90%; Post-emergence action against MATIN in % (MATIN [17]; dosage 20 g/ha): 100%; Post-emergence action against DIGSA (DIGSA [18]): 90%; Post-emergence action against ECHCG in % (ECHCG [19]; dosage 5 g/ha): 80%; Post-emergence action against ECHCG in % (ECHCG [19]; dosage 20 g/ha): 80%; Pre-emergence action against PHBPU in % (PHBPU [5]; dosage 20 g/ha): 80%; Post-emergence action against PHBPU in % (PHBPU [12]; dosage 5 g/ha): 80%
CCn1nnnc1NC(=O)c1ccc(C(F)F)c(C(=O)NCCOC)c1C [Example 2-346],90,80,90,–,–,–,100,100,100,80,80,–,80,90,80,90,90,90,100,80,Post-emergence action against VIOTR in % (VIOTR [14]; 5 g/ha): 80%; Post-emergence action against VERPE in % (VERPE [15]): 80%; Post-emergence action against ECHCG in % (ECHCG [19]; dosage 5 g/ha): 80%; Post-emergence action against ECHCG in % (ECHCG [19]; dosage 20 g/ha): 90%; Post-emergence action against ALOMY in % (ALOMY [16]): 80%; Pre-emergence action against AVEFA in % (AVEFA): 80%
CCn1nnnc1NC(=O)c1ccc(OC)c(C(=O)NC2CC2)c1Cl [Example 2-354],100,90,–,–,–,–,100,100,100,80,100,–,80,100,80,90,90,100,100,90,Pre-emergence action against VERPE in % (VERPE [10]; dosage 20 g/ha): 80%; Post-emergence action against VERPE in % (VERPE [15]): 90%; Post-emergence action against ALOMY in % (ALOMY [16]): 80%; Pre-emergence action against AVEFA in % (AVEFA): 90%; Post-emergence action against SETVI in % (SETVI [20]): 90%
Cc1nnc(NC(=O)c2ccc(C(F)(F)F)c(C(=O)NCC3CC3)c2C2CC2)o1 [Example 6-228],80,–,90,90,100,80,–,100,90,–,–,80,–,90,80,–,–,–,–,–,Post-emergence action against DIGSA (DIGSA [18]): 80%
